# Legend:
# [1] = tested on: N87 cell (Ag+); test: In vitro cytotoxicity (MTT) assay, N87 cells; assay type: cell-based, human
# Method: (§1) The cell lines used in the cytotoxicity assays were HL-60, a human promyelocytic leukemia cell line; NCI-N87, a human gastric carcinoma cell line; and SKOV3, a human ovarian carcinoma cell line. […] For SKOV3 cells, the cells were grown in McCoy's 5A Medium with 10% FBS. To run the assay, the cells (180 µl, 6000 cells) were added to each well in a 96-well plate and incubated for 24 hours at 37°C with 5% CO2. Next, the cells were treated with test compounds (20 µl) at various concentrations in appropriate cell culture medium (total volume, 0.2 mL). The control wells contain cells and the medium but lack the test compounds. The plates were incubated for 120 hours at 37°C with 5% CO2. MTT (5mg/ml) was then added to the wells (20 µl) and the plates were incubated for 1.5hr at 37°C. The medium was carefully removed and DMSO (180 µl) was added afterward. […] The inhibition% was calculated according to the following equation: inhibition% = [1-(assay-blank)/(control-blank)] × 100.
# [2] = tested on: SK-OV-3 cell (Ag+); test: In vitro cytotoxicity (MTT) assay, SK-OV-3 cells; assay type: cell-based, human
# Method: as §1
# [3] = tested on: HL60 cell (Ag-); test: In vitro cytotoxicity (MTT) assay, HL60 cells; assay type: cell-based; details: HL-60 human promyelocytic leukemia cell line, 120 hours incubation
# Method: as §1
substance,measurement,setting,value
T-DM1,IC50,"[1]; NCI-N87 human gastric carcinoma cell line, 120 hours incubation, MTT",0.266 nM
same,Specificity for N87 cell,[1]; matches ratio of HL60 (Ag-) IC50 bound to N87 IC50,over 56
same,IC50,"[2]; SKOV3 human ovarian carcinoma cell line, 120 hours incubation, MTT",0.177 nM
same,Specificity for SK-OV-3 cell,[2]; matches ratio of HL60 (Ag-) IC50 bound to SK-OV-3 IC50,over 84
same,IC50,[3],> 15 nM

# Reference: patent publication EP3319936B1, “BRIDGE LINKERS FOR CONJUGATION OF CELL-BINDING MOLECULES” (priority 2015, dated 2015)
